Results from PubChem BioAssay AID1963597 (National Center for Advancing Translational Sciences (NCATS), 2024).
Residues, ends and D or L forms follow the SMILES beside them. *: point of attachment. Hexanoyl = CCCCCC(=O)*

System: human liver microsomes, metabolic stability half-life
Test: NCATS Human Liver Microsomal (HLM) Stability Profiling
Details: higher = more stable; screened at 1 µM (by protocol)
Method in brief: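 Half-life derived from parent loss over 0–60 min (0, 5, 10, 15, 30, 60 min) at 37 °C. Incubations: 0.5 mg/mL microsomes, 1 µM test article, NADPH regeneration, pH 7.4 phosphate; quenched in acetonitrile containing albendazole, analysed by MS.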

| SMILES | half-life |
| --- | --- |
| O=C(O)c1ccccc1-c1c2cc(Br)c(=O)c(Br)c-2oc2c(Br)c(O)c(Br)cc12 | > 120 min |
| N[C@@H](Cc1ccc(Oc2cc(I)c(O)c(I)c2)c(I)c1)C(=O)O | > 120 min |
| Cc1ccc(C(=O)Oc2ccc(C(O)CNC(C)(C)C)cc2OC(=O)c2ccc(C)cc2)cc1 (stereo unspecified) | 2.27 min |
| O=C(O)c1ccc(Nc2ncc3c(n2)-c2ccc(Cl)cc2C(c2c(F)cccc2F)=NC3)cc1 | 46.9 min |
| O=c1cc(-c2ccc(O)cc2)oc2cc(O)cc(O)c12 | 18.8 min |
| C=CC(=O)Nc1cccc(CN2C(=O)N(c3c(Cl)c(OC)cc(OC)c3Cl)Cc3cnc(NCCCCN(CC)CC)nc32)c1 | 43 min |
| COc1nccc(-c2c(-c3ccc(F)cc3)ncn2C2CCNCC2)n1 | > 120 min |
| NC(=O)N1c2ccccc2C=Cc2ccccc21 | > 120 min |
| OC1(c2ccc(Cl)cc2)CCNCC1 | > 120 min |
| CCCNC(=O)C1CCC(Cn2c(=O)c3sccc3n(CC(=O)NCc3ccccc3)c2=O)CC1 (stereo unspecified) | 11.2 min |
| CCOC(=O)C1(CCOc2ccccc2)CCN(Cc2ccc(O)c(Cl)c2)CC1 | 5.08 min |
| CCN1CCN(C(=O)Cc2ccc(Nc3ncc(F)c(Nc4ccc(C(=O)Nc5ccccc5Cl)cc4)n3)cc2)CC1 | 4.23 min |
| O=c1c2cccnc2n(-c2cccc([N+](=O)[O-])c2)c(=O)n1Cc1ccncc1 | 24.5 min |
| Cn1c(=O)cc(N2CCCC(N)C2)n(Cc2ccccc2C#N)c1=O (stereo unspecified) | > 120 min |
| Cc1ncc(CSSCc2cnc(C)c(O)c2CO)c(CO)c1O | > 120 min |
| O=C(O)c1cn(C2CC2)c2cc(Cl)c(F)cc2c1=O | > 120 min |
| N#Cc1ccnc(Nc2cc(C3CCN(C4COC4)CC3)cc(N3CCC(F)(F)C3)n2)c1 | 29.3 min |
| CN(C)[C@@H]1C(=O)C(C(N)=O)=C(O)[C@@]2(O)C(=O)C3=C(O)c4c(O)ccc(Cl)c4[C@@H](O)[C@H]3C[C@@H]12 | > 120 min |
| COc1ccc(CCC(C)=O)cc1 | > 120 min |
| Cc1cccc(C)c1NC(=O)Nc1cccs1 | 80.6 min |
| CCCCCC(=O)N1CCC[C@H]1C(=O)N[C@@H](Cc1ccc(O)cc1)C(=O)OC (Hexanoyl-Pro-Tyr-OMe) | 7.74 min |
| CC(Cc1ccccc1)NCc1ccccc1Cl (stereo unspecified) | 10.6 min |
| Cc1ccccc1-n1c([C@H](C)Nc2nc(N)nc3nc[nH]c23)nc2cccc(C)c2c1=O | 103 min |
| NC(=O)C1(N2CCCCC2)CCN(CCCC(=O)c2ccc(F)cc2)CC1 | 101 min |
| CCN(CC)C(=O)C1CN2CCc3cc(OC)c(OC)cc3C2CC1OC(C)=O (stereo unspecified) | > 120 min |
| O=c1[nH]c([C@@H]2CCCN2)nc2c1oc1ccc(Cl)cc12 | > 120 min |

| SMILES | half-life |
| --- | --- |
| NCCc1ccc(O)cc1 | > 120 min |
| NC1(c2ccc(-c3nc4ccn5c(=O)[nH]nc5c4cc3-c3ccccc3)cc2)CCC1 | 83 min |
| Cc1cc(C(C)Nc2ccccc2C(=O)O)c2nc(N3CCOCC3)cc(=O)n2c1 (stereo unspecified) | > 120 min |
| CCn1c(C(=O)NCc2ccccc2Cl)cc2sc(Cl)cc21 | 7.52 min |
| O=C(O)c1ccc2c(c1)nc(Nc1cccc(Cl)c1)c1ccncc12 | 82.5 min |
| CN1C(=O)COc2c(C(=O)NC3CN4CCC3CC4)cc(Cl)cc21 (stereo unspecified) | > 120 min |
| Oc1ccc(-c2cnc3ccc(NCc4ccco4)nn23)cc1 | 9.45 min |
| CN(C)c1nc(Cc2ccc(NC(=O)c3ccc4ccccc4c3)cc2)nc(Cl)c1CC(=O)O | > 120 min |
| CC(=O)N1CCC(Cc2ccc(C(=O)O)cc2)CC1 | > 120 min |
| O=C1c2ccccc2C(=O)C1C(=O)C(c1ccccc1)c1ccccc1 | > 120 min |
| O=c1[nH]c(=O)n([C@H]2C[C@H](O)[C@@H](CO)O2)cc1C(F)(F)F | > 120 min |
| COc1ccc(NC(=O)Cn2ccn(-c3ccc(C)c(C)c3)c(=O)c2=O)cc1Cl | > 120 min |
| C[C@@]1(c2cc(-c3cncnc3)c(F)cc2F)CCSC(N)=N1 | > 120 min |
| CC(C)(C)c1ccc(C(=O)CCCCl)cc1 | 3.84 min |
| CC(C)NC(=O)c1ccc(C=O)cc1 | 3.1 min |
| CCOC(=O)c1ccc(OCCN2C[C@H](O)[C@@H](O)[C@H](O)[C@H]2CO)cc1 | > 120 min |
| N#Cc1ccc(C(=O)Nc2ccc(Cl)c(-c3nc4ncccc4o3)c2)c(F)c1 | 10.3 min |
| CCC[C@H](N[C@H]1CCc2cc(F)cc(F)c2C1)C(=O)Nc1cn(C(C)(C)CNCC(C)(C)C)cn1 | 3.12 min |
| Cc1cc(OCc2nnc(SC3CCCC3)n2-c2cccnc2)ccc1-c1ccc(S(C)(=O)=O)cc1 | 1.66 min |
| NS(=O)(=O)c1cc2c(cc1Cl)NC(CSCc1ccccc1)=NS2(=O)=O | 29.2 min |
| Cc1c(NC(=O)OCC2COCCN2)cn2ncnc(Nc3ccc4c(cnn4Cc4cccc(F)c4)c3)c12 (stereo unspecified) | > 120 min |
| COc1ccccc1Cn1cc(C(=O)c2ccc(Cl)cc2)c(=O)c2cc3c(cc21)OCCO3 | 40.8 min |
| Cc1ccc(C)c(N2CCN(CCCNC(=O)c3ccc4nc(C(C)C)oc4c3)CC2)c1 | 13.8 min |
| Cc1ccc(C(=O)N2CCc3cc(CNS(=O)(=O)c4cccs4)ccc32)cc1 | 5.17 min |
| NC(=O)c1nnn(Cc2cc(Cl)c(C(=O)c3ccc(Cl)cc3)c(Cl)c2)c1N | > 120 min |
| Cc1onc(-c2ccccc2)c1-c1ccc(S(N)(=O)=O)cc1 | > 120 min |

| SMILES | half-life |
| --- | --- |
| COc1cccc(C(=O)Nc2ccc3ncnc(N4CCCCC4)c3c2)c1 | 5.03 min |
| O=C(CCCN1CCC(n2c(=O)[nH]c3ccccc32)CC1)c1ccc(F)cc1 | > 120 min |
| Nc1ncnc2c1ncn2Cc1c(F)cccc1Cl | > 120 min |
| COc1ccc(C)cc1Nc1c2c(nc3ccccc13)CCC2 | 29.9 min |
| O[C@@H]1CO[C@H]2[C@@H]1OC[C@@H]2O | > 120 min |
| CC1=C2[C@H]3OC(=O)[C@@H](C)[C@@H]3CC[C@@]2(C)C=CC1=O | > 120 min |
| COc1ccc(-c2nc3ccccc3c(=O)n2Cc2ccco2)cc1COc1ccc(NC(C)=O)cc1 | 1.85 min |
| Cc1coc2c1C(=O)C(=O)c1c-2ccc2c1CCCC2(C)C | 5.39 min |
| Cc1c(Cl)ccc2sc(N3CCN(C(=O)CS(=O)(=O)c4ccccc4)CC3)nc12 | 61.2 min |
| Cc1ncc(Cl)cc1NCc1ccc(C(=O)NC(CC2CCCC2)C(=O)NC2CC2)s1 (stereo unspecified) | 6.13 min |
| CC(C)(N)Cc1ccccc1Cl | > 120 min |
| COc1ccc([C@@H]2Sc3ccccc3NC(=O)[C@@H]2O)cc1 | 67.5 min |
| CC(CC1c2ccccc2CCc2ccccc21)CN(C)C (stereo unspecified) | 87.7 min |
| CCOc1cc(CC(=O)N[C@@H](CC(C)C)c2ccccc2N2CCCCC2)ccc1C(=O)O | 44.3 min |
| C=C1C(=O)O[C@@H]2[C@H]3O[C@]3(C)CC/C=C(\C)CC[C@@H]12 | > 120 min |
| CCOc1ccc(CNC(=O)Cn2c(=O)c3cccn3c3ccc(F)cc32)cc1OC | 80.7 min |
| COc1cc2c(Nc3ccc(Cl)c(Cl)c3F)ncnc2cc1OCC1C[C@@H]2CN(C)C[C@@H]2C1 (stereo partly specified) | 61.9 min |
| CCN1CCN(C(=O)c2cc(-c3ccccc3OC)c3nncn3n2)CC1 | 54.7 min |
| Nc1nccs1 | 53.7 min |
| CC#C[C@@H](CC(=O)O)c1ccc(OCc2ccc(CN3CCC4(C=Cc5ccccc54)CC3)s2)cc1 | 25.1 min |
| CNS(=O)(=O)CCc1ccc2[nH]cc(C3CCN(C)CC3)c2c1 | > 120 min |
| Nc1ncnc2c1c(COc1cccc(Cl)c1)nn2C1CCOCC1 | 39.9 min |
| Nc1ccc(N=Nc2ccccc2)c(N)n1 | 7.45 min |
| Cc1ccc(COC(=O)N2CC[C@@H](CNc3ncccn3)[C@@H](F)C2)cc1 | 64.9 min |
| CN/C(=C\[N+](=O)[O-])NCCSCc1csc(CN(C)C)n1 | > 120 min |
| CC(Cc1cccc(C(F)(F)F)c1)NCCOC(=O)c1ccccc1 (stereo unspecified) | 0.84 min |

| SMILES | half-life |
| --- | --- |
| CN(C)CCCO[C@H]1C([C@H](O)CO)O[C@@H]2OC(C)(C)O[C@@H]21 (stereo partly specified) | 78.9 min |
| Cc1c(NC(=O)c2ccc(N3CCC(C)CC3)c([N+](=O)[O-])c2)cccc1-c1nc2ccccc2o1 | 30.7 min |
| CCC1(O)CC2c3cc(OC)c(OC)cc3CCN2CC1CC(C)C (stereo unspecified) | > 120 min |
| Nc1nc2ccccc2n1Cc1ccc(F)cc1 | > 120 min |
| Cc1ccc2c(c1)c1c3n2CCNC3CCC1 (stereo unspecified) | 8.9 min |
| COc1ccc(C(CN(C)C)C2(O)CCCCC2)cc1 (stereo unspecified) | > 120 min |
| COc1cc(-c2nn(C3CCC(N4CCN(C(C)=O)CC4)CC3)c3ncnc(N)c23)ccc1NC(=O)c1cc2ccccc2n1C (stereo unspecified) | > 120 min |
| Cc1cc(=O)oc2cc(O)ccc12 | 60.6 min |
| Cc1ccc(Cl)c(OCC(O)CNC(C)(C)C)c1 (stereo unspecified) | 1.53 min |
| CCCc1ccc(C(=O)O)cc1 | > 120 min |
| C[C@]12CC[C@H]3[C@@H](CC[C@@]45O[C@H]4C(O)=C(C#N)C[C@]35C)[C@H]1CC[C@H]2O | 85 min |
| COc1cc2c(cc1OC)CN(C(=O)[C@@H](NCc1ccncc1)C(C)(C)C)CC2 | 2.24 min |
| COc1ccc(-c2ccn(CC[C@](C)(C(=O)NO)S(C)(=O)=O)c(=O)c2)c(F)c1 | > 120 min |
| O=C(c1cnn(-c2cccc(F)c2)c1-n1cccc1)N1CCN(c2ccccc2F)CC1 | 9.4 min |
| CCOP(=S)(Oc1cnc(C(C)(C)C)nc1)OC(C)C (stereo unspecified) | 11.1 min |
| CCC(=O)N[C@@H]1Cc2ccccc2[C@H](c2ccccc2)C1 | 46.1 min |
| Cc1oc(=O)oc1COC(=O)[C@@H]1N2C(=O)[C@@H](NC(=O)[C@H](N)c3ccccc3)[C@H]2SC1(C)C | 12.2 min |
| O=C(O)Cc1ccc2oc(-c3ccc(NC(=O)/C=C/c4ccc(Br)cc4)c(F)c3)nc2c1 | > 120 min |
| CCOc1ccc(-c2cc(NC(=O)Nc3ccccc3Cl)c(C(=O)OC)s2)cc1 | 47.8 min |
| CCOC(=O)c1ncn2c1CN(C)C(=O)c1c(I)cccc1-2 | 111 min |
| Cc1ccc2c(n1)Oc1ccc(C(C)C(=O)OCC(=O)N(C)C)cc1C2 (stereo unspecified) | 11.1 min |
| C[C@]12CCC3c4ccc(O)cc4C[C@@H](CCCCCCCCCS(=O)CCCC(F)(F)C(F)(F)F)[C@H]3[C@@H]1CC[C@@H]2O (stereo partly specified) | 4.1 min |
| Cc1cc2c(F)c(Oc3ncnn4cc(OCC(C)OC(=O)C(C)N)c(C)c34)ccc2[nH]1 (stereo unspecified) | 1.26 min |
